Test [1] concerns the target T1, recombinant human A2A receptors (Homo sapiens, UniProt P29274).
T1 construct: expressed in transfected cells; host or cells: Sf9 insect cells infected with virus; membranes
Description: Radioligand competition binding with 125I-APE or 125I-ZM241385, Sf9 cell membranes. The following applies: 125I-APE or 125I-ZM241385, Sf9 membranes; class symbols. The protocol: Cell culture and membrane preparation. Sf9 cells were cultured in Grace's medium supplemented with 10% fetal bovine serum, 2.5 μg/ml amphotericin B and 50 μg/ml gentamycin in an atmosphere of 50% N2/50% O2. Viral infection was performed at a density of 2.5×10^6 cells/mL with a multiplicity of infection of two for each virus used. Infected cells were harvested 3 days post-infection and washed twice in insect PBS (PBS pH 6.3). Cells were then resuspended in lysis buffer (20 mM HEPES pH 7.5, 150 mM NaCl, 3 mM MgCl2, 1 mM α-mercaptoethanol (BME), 5 μg/mL leupeptin, 5 μg/mL pepstatin A, 1 μg/mL aprotinin, and 0.1 mM PMSF) and snap frozen for storage at −80° C. Cells were thawed on ice, brought to 30 mL total volume in lysis buffer, and burst by N2 cavitation (600 psi for 20 minutes). A low-speed centrifugation was performed to remove any unlysed cells (1000×g for 10 minutes), followed by a high-speed centrifugation (17,000×g for 30 minutes). The pellet from the final centrifugation was homogenized in buffer containing 20 mM HEPES pH 8, 1100 mM NaCl, 1% glycerol, 2 μg/mL leupeptin, 2 μg/mL pepstatin A, 2 μg/mL Aprotinin, 0.1 mM PMSF, and 10 μM GDP using a small glass homogenizer followed by passage through a 26 gauge needle. Membranes were aliquoted, snap frozen in liquid N2, and stored at −80° C.
Radioligand Binding Assays. […] Binding experiments were performed in triplicate with 5 μg (A2A) or 25 μg (A1 and A3) membrane protein in a total volume of 00.1 mL HE buffer (20 mM HEPES and 1 mM EDTA) with 1 U/mL adenosine deaminase and 5 mM MgCl2 with or without 50 μM GTPγS. Membranes were incubated with radioligands at room temperature for three hours (for agonists) or two hours (for antagonists) in Millipore Multiscreen® 96-well GF/C filter plates and assays were terminated by rapid filtration on a cell harvester (Brandel, Gaithersburg, Md.) followed by 4×150 μl washes over 30 seconds with ice cold 10 mM Tris-HCl, pH 7.4, 10 mM MgCl2. Nonspecific binding was measured in the presence of 50 μM NECA.
Background: Loss of bound radioactivity is the signal in a displacement assay; it reports binding, not function.

A further test concerns the target T2, human A1 AR (Homo sapiens, UniProt P30542).
T2 construct: expressed in transfected cells; membranes
T2 sequence (P30542 1-326): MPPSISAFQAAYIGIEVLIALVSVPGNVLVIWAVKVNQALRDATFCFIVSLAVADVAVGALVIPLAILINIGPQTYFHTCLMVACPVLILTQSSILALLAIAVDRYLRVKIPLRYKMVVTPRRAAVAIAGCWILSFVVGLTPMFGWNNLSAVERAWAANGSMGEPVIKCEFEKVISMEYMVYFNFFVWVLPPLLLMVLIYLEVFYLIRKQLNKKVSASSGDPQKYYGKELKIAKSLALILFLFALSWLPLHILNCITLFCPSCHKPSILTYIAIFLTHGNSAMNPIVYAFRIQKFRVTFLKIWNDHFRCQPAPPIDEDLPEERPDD
Description: Radioligand competition binding with 125I-ABA, membranes of CHO K1 cells stably expressing the receptor. The following applies: Ki derived from IC50, class symbols.

A further test deals with T3, human A3 AR (Homo sapiens, UniProt P0DMS8).
T3 construct: expressed in transfected cells; membranes
T3 sequence (P0DMS8 1-318): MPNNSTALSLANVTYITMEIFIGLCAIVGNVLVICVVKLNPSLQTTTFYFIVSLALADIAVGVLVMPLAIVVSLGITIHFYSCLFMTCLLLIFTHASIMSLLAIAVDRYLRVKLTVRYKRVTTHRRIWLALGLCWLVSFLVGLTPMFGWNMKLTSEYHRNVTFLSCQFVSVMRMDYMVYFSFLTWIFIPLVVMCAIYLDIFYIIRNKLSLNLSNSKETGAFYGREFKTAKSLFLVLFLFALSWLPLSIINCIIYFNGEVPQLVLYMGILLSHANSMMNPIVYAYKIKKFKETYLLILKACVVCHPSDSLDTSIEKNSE
Description: Radioligand competition binding with 125I-ABA, membranes of HEK 293 cells stably expressing the receptor. The following applies: Ki derived from IC50, class symbols. How it is done: Cell culture and membrane preparation. Sf9 cells were cultured in Grace's medium supplemented with 10% fetal bovine serum, 2.5 μg/ml amphotericin B and 50 μg/ml gentamycin in an atmosphere of 50% N2/50% O2. Viral infection was performed at a density of 2.5×10^6 cells/mL with a multiplicity of infection of two for each virus used. Infected cells were harvested 3 days post-infection and washed twice in insect PBS (PBS pH 6.3). Cells were then resuspended in lysis buffer (20 mM HEPES pH 7.5, 150 mM NaCl, 3 mM MgCl2, 1 mM α-mercaptoethanol (BME), 5 μg/mL leupeptin, 5 μg/mL pepstatin A, 1 μg/mL aprotinin, and 0.1 mM PMSF) and snap frozen for storage at −80° C. Cells were thawed on ice, brought to 30 mL total volume in lysis buffer, and burst by N2 cavitation (600 psi for 20 minutes). A low-speed centrifugation was performed to remove any unlysed cells (1000×g for 10 minutes), followed by a high-speed centrifugation (17,000×g for 30 minutes). The pellet from the final centrifugation was homogenized in buffer containing 20 mM HEPES pH 8, 1100 mM NaCl, 1% glycerol, 2 μg/mL leupeptin, 2 μg/mL pepstatin A, 2 μg/mL Aprotinin, 0.1 mM PMSF, and 10 μM GDP using a small glass homogenizer followed by passage through a 26 gauge needle. Membranes were aliquoted, snap frozen in liquid N2, and stored at −80° C. Membranes from cells stably expressing the human A1 AR (CHO K1 cells) or A3 AR (HEK 293 cells) were prepared as described (Robeva et al., 1996).
Radioligand Binding Assays. Radioligand binding to recombinant human A2A receptors in Sf9 cell membranes was performed using either the radiolabeled agonist, ^125I-APE (Luthin et al., 1995) or the radiolabeled antagonist, ^125I-ZM241385 (^125I-ZM). To detect the high affinity, GTPγS-sensitive state of A1 and A3 AR, we used the agonist, ^125I-ABA (Linden et al., 1985; Linden et al., 1993). Binding experiments were performed in triplicate with 5 μg (A2A) or 25 μg (A1 and A3) membrane protein in a total volume of 00.1 mL HE buffer (20 mM HEPES and 1 mM EDTA) with 1 U/mL adenosine deaminase and 5 mM MgCl2 with or without 50 μM GTPγS. Membranes were incubated with radioligands at room temperature for three hours (for agonists) or two hours (for antagonists) in Millipore Multiscreen® 96-well GF/C filter plates and assays were terminated by rapid filtration on a cell harvester (Brandel, Gaithersburg, Md.) followed by 4×150 μl washes over 30 seconds with ice cold 10 mM Tris-HCl, pH 7.4, 10 mM MgCl2. Nonspecific binding was measured in the presence of 50 μM NECA. Competition binding assays were performed as described (Robeva et al., 1996) using 0.5-1 nM ^125I-APE, ^125I-ZM241385, or ^125I-ABA. […] The Ki values for competing compound binding to a single site were derived from IC50 values with correction for radioligand and competing compound depletion as described previously (Linden, 1982).

The subject of test [2] is Purified human neutrophils. Description: Luminol enhanced chemiluminescence (neutrophil oxidative activity), fMLP stimulated. Type of test: cell-based. The following applies: Homo sapiens, Neutrophil; read-out: Functional. The text has this: Chemiluminescence Methods: Luminol enhanced chemiluminescence, a measure of neutrophil oxidative activity, is dependent upon both superoxide production and mobilization of the granule enzyme myeloperoxidase. The light is emitted from unstable high-energy oxygen species such as hypochlorous acid and singlet oxygen generated by activated neutrophils.
Purified human neutrophils (2×10^6/ml) suspended in Hanks balanced salt solution containing 0.1% human serum albumin (HA), adenosine deaminase (1 U/mL) and rolipram (100 nM) were incubated (37 C) in a water bath for 15 min with or without rhTNF (10 U/ml). Following incubation 100 µL aliquots of the PMN were transferred to wells (White walled clear bottom 96 well tissue culture plates Costar #3670; 2 wells/condition) containing […] and luminol (final concentration 100M) with or without adenosine agonist (final agonist concentrations 0.01-1000 nM). The plate was incubated 5 min (37 C) and then fMLP (50 l in HA; final concentration […]) was added to all wells.
Peak chemiluminescence was determined with a Victor 1420 Multilabel Counter in the chemiluminescence mode using the Wallac Workstation software. Data are presented as peak chemiluminescence as percent of activity in the absence of an adenosine agonist. The EC50 was determined using PRISM software. All compounds were tested with PMNs from three separate donors.

T1 sequence (P29274 whole entry): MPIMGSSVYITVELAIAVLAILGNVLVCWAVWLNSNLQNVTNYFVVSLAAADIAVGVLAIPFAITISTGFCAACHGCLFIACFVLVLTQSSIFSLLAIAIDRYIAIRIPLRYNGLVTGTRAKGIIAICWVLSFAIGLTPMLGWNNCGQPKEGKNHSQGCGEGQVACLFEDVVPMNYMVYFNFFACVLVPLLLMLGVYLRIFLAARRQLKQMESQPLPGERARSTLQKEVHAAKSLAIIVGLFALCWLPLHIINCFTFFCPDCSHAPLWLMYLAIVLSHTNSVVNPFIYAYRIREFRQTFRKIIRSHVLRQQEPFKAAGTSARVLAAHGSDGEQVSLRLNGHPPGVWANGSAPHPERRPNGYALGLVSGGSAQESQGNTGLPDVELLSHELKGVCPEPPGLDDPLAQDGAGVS

Turning to `Cc1ccc(OC(=O)N2CCC(CC#Cc3nc(N)c4ncn([C@@H]5O[C@H](C(=O)NC6CC6)C(O)[C@@H]5O)c4n3)CC2)cc1` (stereo partly shown) [Compound 20, N-Cyclopropyl 2-{3-[1-(4-methylphenyloxycarbonyl)-4-piperidinyl]-1-propyn-1-yl}adenosine-5′-uronamide], the Ki in test [1] was < 1 nM; on human A1 AR it was < 100 nM; on human A3 AR, > 100 nM. Further, the EC50 in test [2] is < 1 nM.

`COc1ccccc1OC(=O)N1CCC(CC#Cc2nc(N)c3ncn([C@@H]4O[C@H](C(=O)NC5CC5)C(O)[C@@H]4O)c3n2)CC1` (stereo partly shown) [Compound 21, N-Cyclopropyl 2-{3-[1-(2-methoxyphenyloxycarbonyl)-4-piperidinyl]-1-propyn-1-yl}adenosine-5′-uronamide]: the Ki was < 1 nM in test [1], < 100 nM on human A1 AR and < 100 nM on human A3 AR. In test [2], the EC50 is < 10 nM.

Regarding `Nc1nc(C#CCC2CCN(C(=O)Oc3ccccc3Cl)CC2)nc2c1ncn2[C@@H]1O[C@H](C(=O)NC2CC2)C(O)[C@@H]1O` (stereo partly shown) [Compound 22, N-Cyclopropyl 2-{3-[1-(2-chlorophenyloxycarbonyl)-4-piperidinyl]-1-propyn-1-yl}adenosine-5′-uronamide], the Ki is < 1 nM in test [1], < 100 nM at human A1 AR and > 100 nM at human A3 AR. Besides, the EC50 in test [2] is < 10 nM.

As for `COc1ccc(OC(=O)N2CCC(CC#Cc3nc(N)c4ncn([C@@H]5O[C@H](C(=O)NC6CC6)C(O)[C@@H]5O)c4n3)CC2)cc1` (stereo partly shown) [Compound 23], the Ki is < 1 nM in test [1], < 100 nM on human A1 AR and < 100 nM on human A3 AR. Besides, in test [2], the EC50 is < 1 nM.

Consider `CCNC(=O)[C@H]1O[C@@H](n2cnc3c(N)nc(C#CCC4CCN(C(=O)Oc5ccc(F)cc5)CC4)nc32)[C@@H](O)C1O` (stereo partly shown) [Compound 24, N-Ethyl 2-{3-[1-(4-fluorophenyloxycarbonyl)-4-piperidinyl]-1-propyn-1-yl}adenosine-5′-uronamide], for which the Ki in test [1] is < 1 nM; at human A1 AR, < 100 nM; on human A3 AR it was < 10 nM. The EC50 in test [2] was < 1 nM.

As for `CCNC(=O)[C@H]1O[C@@H](n2cnc3c(N)nc(C#CCC4CCN(C(=O)Oc5ccc(C(=O)OC)cc5)CC4)nc32)[C@@H](O)C1O` (stereo partly shown) [Compound 25, N-Ethyl 2-{3-[1-(4-methoxycarboxyphenyloxycarbonyl)-4-piperidinyl]-1-propyn-1-yl}adenosine-5′-uronamide], the Ki in test [1] was < 10 nM; at human A1 AR, > 100 nM; at human A3 AR, < 100 nM. For the same molecule, in test [2], the EC50 was < 10 nM.

As to `CCNC(=O)[C@H]1O[C@@H](n2cnc3c(N)nc(C#CCC4CCN(C(=O)Oc5ccc(Cl)cc5)CC4)nc32)[C@@H](O)C1O` (stereo partly shown) [Compound 26, N-Ethyl 2-{3-[1-(4-chlorophenyloxycarbonyl)-4-piperidinyl]-1-propyn-1-yl}adenosine-5′-uronamide], the Ki is < 1 nM in test [1], < 100 nM on human A1 AR and < 10 nM on human A3 AR. Moreover, the EC50 in test [2] is < 1 nM.

In the case of `Nc1nc(C#CCC2CCN(C(=O)Oc3ccc(Cl)cc3)CC2)nc2c1ncn2[C@@H]1O[C@H](CO)[C@@H](O)[C@H]1O` [Compound 27, 2-{3-[1-((4-Chloro)phenoxycarbanoyl)piperidin-4-yl]propyn-1-yl}adenosine], the Ki in test [1] was < 1 nM; on human A1 AR it was < 100 nM; on human A3 AR it was < 100 nM. Moreover, in test [2], the EC50 was < 10 nM.

For `COc1ccc(OC(=O)N2CCC(CC#Cc3nc(N)c4ncn([C@@H]5O[C@H](CO)[C@@H](O)[C@H]5O)c4n3)CC2)cc1` [Compound 28, 2-{3-[1-((4-Methoxy)phenoxycarbanoyl)piperidin-4-yl]propyn-1-yl}adenosine], the values for the Ki (in test [1]; on human A1 AR; on human A3 AR) were < 1 nM, < 100 nM and < 100 nM, respectively. Moreover, the EC50 in test [2] is < 10 nM.

As to `Cc1ccc(OC(=O)N2CCC(CC#Cc3nc(N)c4ncn([C@@H]5O[C@H](CO)[C@@H](O)[C@H]5O)c4n3)CC2)cc1` [Compound 29, 2-{3-[1-((4-Methyl)phenoxycarbanoyl)piperidin-4-yl]propyn-1-yl}adenosine], the Ki in test [1] was < 1 nM; at human A1 AR, < 100 nM; at human A3 AR, < 100 nM. In addition, the EC50 in test [2] was < 10 nM.

In general, Ki refers to the equilibrium dissociation constant of an inhibitor or competing ligand from its target.

Values taken from patent publication US7888329B2, “Substituted aryl piperidinylalkynyladenosines as A2AR agonists” (PGxHealth, LLC, priority 2006, dated 2011).
